In patent publication US8575135B2 (Gilead Sciences, Inc., priority 2011, dated 2013) one finds EC50 data, which are given here for 7 compounds.

Common to all, as to experiment: microbe, parasite or virus in culture
Holding throughout (conditions): Hepatitis C virus

Experiment [1] relates to stable HCV 1a RLuc replicon cells (genotype 1a H77 replicon). Format: cell-based.
The test system of experiment [2] is stable HCV 2a JFH-1 Rluc replicon cells (L31 present in NS5A). The experiment is classed as cell-based.
For experiment [3], the system named is NS5A chimeric genotype 1b Con1 replicon with genotype 3a S52 strain NS5A gene. The experiment is classed as cell-based, HCV. In a few lines:
(§1)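 Con1-based 3a and 4a chimeras carried a Pi-RLuc reporter and were transiently transfected into Huh-Lunet cells; the JFH-1-based 2b chimera (RLuc-Neo) was used transiently or as stable replicon cells.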

Experiment [4] relates to NS5A chimeric genotype 2a JFH-1 replicon with genotype 2a J6 strain NS5A gene (M31 present). Format: cell-based, HCV.
In experiment [5] the test system is NS5A chimeric genotype 2a JFH-1 replicon with genotype 2b MD2b-1 strain NS5A gene (M31 present). Format: cell-based, HCV. In a few lines: as §1
Experiment [6] deals with NS5A chimeric genotype 1b Con1 replicon with genotype 4a ED43 strain NS5A gene. Format: cell-based, HCV.
The subject of experiment [7] is 1a Pi-Rluc replicon with Q30R in genotype 1a NS5A. Format: cell-based, HCV. Here is the method: Antiviral potency (EC50) was determined using a Renilla luciferase (RLuc)-based HCV replicon reporter assay. […] To perform the assay for genotype 2a (with M31 present in NS5A) or 2b, NS5A chimeric genotype 2a JFH-1 replicons that encodes a RLuc-Neo reporter and either genotype 2a J6 strain NS5A gene or genotype 2b MD2b-1 strain NS5A gene (both with M31 present) respectively, were either transiently transfected (t) into Huh-Lunet cells or were established as stably replicating replicon cells (s) is provided. Either cells were dispensed into 384-well plates for EC50 assays. To perform the assay for genotype 3 and 4, NS5A chimeric genotype 1b Con1 replicons that encodes a Pi-RLuc reporter and either genotype 3a S52 strain NS5A gene or genotype 4a ED43 strain NS5A gene respectively, were transiently transfected (t) into Huh-Lunet cells, which were subsequently dispensed into 384-well plates. Compounds were dissolved in DMSO at a concentration of 10 mM and diluted in DMSO either manually or using an automated pipeting instrument. Serially 3-fold diluted compounds were either manually mixed with cell culture media and added to the seeded cells or directly added to the cells using an automated instrument. […] 72 hours later, cells were lysed and Renilla luciferase activity quantified as recommended by the manufacturer (Promega-Madison, Wis.). Non-linear regression was performed to calculate EC50 values.
To determine the antiviral potency (EC50) against resistance mutants, resistance mutations, including M28T, Q30R, Q30H, L31M, and Y93C in genotype 1a NS5A and Y93H in genotype 1b NS5A, were introduced individually into either 1a Pi-Rluc or 1b Pi-Rluc replicons by site directed mutagenesis. Replicon RNA of each resistant mutant was transiently transfected into Huh-7-derived cured-51 cells and antiviral potency was determined on these transfected cells as described above.

Like-named read-outs stand apart in the source and are kept apart here. Bounds are passed on as bounds.

In the case of `COC(=O)N[C@H](C(=O)N1CCC[C@H]1c1nc2c([nH]1)-c1cc3c(cc1CC2)-c1ccc(-c2cnc([C@@H]4CCCN4C(=O)[C@H](NC(=O)C4CC4)c4ccccc4)[nH]2)cc1CO3)C(C)C` [Compound 494], the EC50 in experiment [1] (read-out: 1a) was < 1 nM; in experiment [1] (read-out: 1a (nM)), 0.037 nM; in experiment [2] (read-out: 2a JFH), < 1 nM; in experiment [2] (read-out: 2a JFH (nM)) it was 0.005 nM; in experiment [3] (read-out: 3a), < 1 nM; in experiment [3] (read-out: 3a (nM)), 0.005 nM. For the same compound, the EC50 in experiment [4] (read-out: 2a J6) is < 1 nM; in experiment [4] (read-out: 2a J6 (s) (nM)), 0.098 nM; in experiment [5] (read-out: 2b), < 1 nM; in experiment [5] (read-out: 2b (s) (nM)) it was 0.017 nM; in experiment [6] (read-out: 4a), < 1 nM; in experiment [6] (read-out: 4a (s) (nM)), 0.031 nM. Further, the EC50 in experiment [6] (read-out: 4a (t) (nM)) was 0.017 nM; in experiment [7] (read-out: 1a Q30R), < 1 nM; in experiment [7] (read-out: 1a Q30R (nM)), 0.118 nM.
For the compound `COC[C@H]1C[C@@H](c2ncc(-c3ccc4c(c3)COc3cc5c(cc3-4)CCc3nc([C@@H]4CCCN4C(=O)[C@@H](NC(=O)OC)C(C)C)[nH]c3-5)[nH]2)N(C(=O)[C@H](NC(=O)OC)c2ccccc2)C1` [Example OK, Methyl {(1R)-2-[(2S,4S)-2-(5-{2-[(2S)-1-{(2S)-2-[(methoxycarbonyl)amino]-3-methylbutanoyl}pyrrolidin-2-yl]-1,4,5,11-tetrahydroisochromeno[4′,3′:6,7]naphtho[1,2-d]imidazol-9-yl}-1H-imidazol-2-yl)-4-(methoxymethyl)pyrrolidin-1-yl]-2-oxo-1-phenylethyl}carbamate], the EC50 in experiment [1] (read-out: 1a) was < 1 nM; in experiment [1] (read-out: 1a (nM)), 0.026 nM; in experiment [2] (read-out: 2a JFH), < 1 nM; in experiment [2] (read-out: 2a JFH (nM)) it was 0.011 nM; in experiment [3] (read-out: 3a) it was < 1 nM; in experiment [3] (read-out: 3a (nM)), 0.028 nM. In addition, the EC50 in experiment [4] (read-out: 2a J6) is < 1 nM; in experiment [4] (read-out: 2a Jb (t) (nM)) it was 0.076 nM; in experiment [5] (read-out: 2b) it was < 1 nM; in experiment [5] (read-out: 2b (s) (nM)), 0.045 nM; in experiment [5] (read-out: 2b (t) (nM)), 0.036 nM; in experiment [7] (read-out: 1a Q30R), < 1 nM. Also, in experiment [7] (read-out: 1a Q30R (nM)), the EC50 turned out to be 0.039 nM.
For `COC[C@H]1C[C@@H](c2ncc(-c3ccc4c(c3)COc3cc5c(ccc6nc([C@@H]7C[C@@H]8C[C@@H]8N7C(=O)[C@@H](NC(=O)OC)C(C)C)[nH]c65)cc3-4)[nH]2)N(C(=O)[C@H](NC(=O)OC)c2ccccc2)C1` [Example OV, Methyl {(1R)-2-[(2S,4S)-2-(5-{2-[(1S,3S,5S)-2-{(2S)-2-[(methoxycarbonyl)amino]-3-methylbutanoyl}-2-azabicyclo[3.1.0]hex-3-yl]-1,11-dihydroisochromeno[4′,3′:6,7]naphtho[1,2-d]imidazol-9-yl}-1H-imidazol-2-yl)-4-(methoxymethyl)pyrrolidin-1-yl]-2-oxo-1-phenylethyl}carbamate], the EC50 in experiment [1] (read-out: 1a) was < 1 nM; in experiment [1] (read-out: 1a (nM)), 0.01 nM; in experiment [2] (read-out: 2a JFH) it was < 1 nM; in experiment [2] (read-out: 2a JFH (nM)) it was 0.007 nM; in experiment [3] (read-out: 3a), < 1 nM; in experiment [3] (read-out: 3a (nM)), 0.013 nM. The EC50 in experiment [4] (read-out: 2a J6) was < 1 nM; in experiment [4] (read-out: 2a Jb (t) (nM)), 0.113 nM; in experiment [5] (read-out: 2b), < 1 nM; in experiment [5] (read-out: 2b (t) (nM)) it was 0.046 nM; in experiment [7] (read-out: 1a Q30R) it was < 1 nM; in experiment [7] (read-out: 1a Q30R (nM)), 0.031 nM.
Take `COC[C@H]1C[C@@H](c2ncc(-c3ccc4c(c3)COc3cc5c(ccc6nc([C@@H]7C[C@H]8C[C@H]8N7C(=O)[C@@H](NC(=O)OC)C(C)C)[nH]c65)cc3-4)[nH]2)N(C(=O)[C@H](NC(=O)OC)c2ccccc2)C1` [Example PR, methyl {(1R)-2-[(2S,4S)-2-(5-{2-[(1R,3S,5R)-2-{(2S)-2-[(methoxycarbonyl)amino]-3-methylbutanoyl}-2-azabicyclo[3.1.0]hex-3-yl]-1,11-dihydroisochromeno[4′,3′:6,7]naphtho[1,2-d]imidazol-9-yl}-1H-imidazol-2-yl)-4-(methoxymethyl)pyrrolidin-1-yl]-2-oxo-1-phenylethyl}carbamate]: the EC50 is < 1 nM in experiment [1] (read-out: 1a); 0.013 nM in experiment [1] (read-out: 1a (nM)); < 1 nM in experiment [2] (read-out: 2a JFH); 0.007 nM in experiment [2] (read-out: 2a JFH (nM)); < 1 nM in experiment [3] (read-out: 3a); 0.018 nM in experiment [3] (read-out: 3a (nM)). Also, the EC50 in experiment [4] (read-out: 2a J6) is < 1 nM; in experiment [4] (read-out: 2a Jb (t) (nM)), 0.022 nM; in experiment [5] (read-out: 2b), < 1 nM; in experiment [5] (read-out: 2b (t) (nM)), 0.028 nM; in experiment [7] (read-out: 1a Q30R), < 1 nM; in experiment [7] (read-out: 1a Q30R (nM)), 0.045 nM.
Consider `COC(=O)N[C@H](C(=O)N1[C@@H](C)CC[C@H]1c1nc2ccc3cc4c(cc3c2[nH]1)OCc1cc(-c2cnc([C@@H]3C[C@H](C)CN3C(=O)[C@H](NC(=O)OC)c3ccccc3)[nH]2)ccc1-4)C(C)C` [Example QF, Methyl {(2S)-1-[(2S,5S)-2-(9-{2-[(2S,4S)-1-{(2R)-2-[(methoxycarbonyl)amino]-2-phenylacetyl}-4-methylpyrrolidin-2-yl]-1H-imidazol-5-yl}-1,11-dihydroisochromeno[4′,3′:6,7]naphtho[1,2-d]imidazol-2-yl)-5-methylpyrrolidin-1-yl]-3-methyl-1-oxobutan-2-yl}carbamate], for which the EC50 was < 1 nM in experiment [1] (read-out: 1a); 0.008 nM in experiment [1] (read-out: 1a (nM)); < 1 nM in experiment [2] (read-out: 2a JFH); 0.004 nM in experiment [2] (read-out: 2a JFH (nM)); < 1 nM in experiment [3] (read-out: 3a); 0.02 nM in experiment [3] (read-out: 3a (nM)). The EC50 in experiment [4] (read-out: 2a J6) is < 1 nM; in experiment [4] (read-out: 2a Jb (t) (nM)) it was 0.053 nM; in experiment [5] (read-out: 2b), < 1 nM; in experiment [5] (read-out: 2b (s) (nM)), 0.011 nM; in experiment [5] (read-out: 2b (t) (nM)) it was 0.015 nM; in experiment [7] (read-out: 1a Q30R), < 1 nM. In addition, the EC50 in experiment [7] (read-out: 1a Q30R (nM)) was found to be 0.032 nM.
On to `COC(=O)N[C@H](C(=O)N1C[C@@H](C)C[C@H]1c1ncc(-c2ccc3c(c2)COc2cc4c(ccc5nc([C@@H]6CC[C@H](C)N6C(=O)[C@@H](NC(=O)OC)C(C)C)[nH]c54)cc2-3)[nH]1)C(C)C` [Example QG, Methyl {(2S)-1-[(2S,5S)-2-(9-{2-[(2S,4S)-1-{(2S)-2-[(methoxycarbonyl)amino]-3-methylbutanoyl}-4-methylpyrrolidin-2-yl]-1H-imidazol-5-yl}-1,11-dihydroisochromeno[4′,3′:6,7]naphtho[1,2-d]imidazol-2-yl)-5-methylpyrrolidin-1-yl]-3-methyl-1-oxobutan-2-yl}carbamate], for which the EC50 in experiment [1] (read-out: 1a) was < 1 nM; in experiment [1] (read-out: 1a (nM)), 0.005 nM; in experiment [2] (read-out: 2a JFH), < 1 nM; in experiment [2] (read-out: 2a JFH (nM)), 0.004 nM; in experiment [3] (read-out: 3a) it was < 1 nM; in experiment [3] (read-out: 3a (nM)), 0.016 nM. Besides, the EC50 in experiment [4] (read-out: 2a J6) is < 1 nM; in experiment [4] (read-out: 2a Jb (t) (nM)) it was 0.551 nM; in experiment [5] (read-out: 2b), < 1 nM; in experiment [5] (read-out: 2b (s) (nM)) it was 0.043 nM; in experiment [5] (read-out: 2b (t) (nM)) it was 0.065 nM; in experiment [7] (read-out: 1a Q30R), < 1 nM. Moreover, the EC50 in experiment [7] (read-out: 1a Q30R (nM)) was determined as 0.071 nM.
`COC(=O)N[C@H](C(=O)N1[C@@H](C)CC[C@H]1c1nc2ccc3cc4c(cc3c2[nH]1)OCc1cc(-c2cnc([C@@H]3C[C@H](C)CN3C(=O)[C@@H](NC(=O)OC)[C@@H](C)OC)[nH]2)ccc1-4)C(C)C` [Example QH, Methyl {(2S)-1-[(2S,5S)-2-(9-{2-[(2S,4S)-1-{(2S,3R)-3-methoxy-2-[(methoxycarbonyl)amino]butanoyl}-4-methylpyrrolidin-2-yl]-1H-imidazol-5-yl}-1,11-dihydroisochromeno[4′,3′:6,7]naphtho[1,2-d]imidazol-2-yl)-5-methylpyrrolidin-1-yl]-3-methyl-1-oxobutan-2-yl}carbamate]: the EC50 in experiment [1] (read-out: 1a) was < 1 nM; in experiment [1] (read-out: 1a (nM)), 0.007 nM; in experiment [2] (read-out: 2a JFH) it was < 1 nM; in experiment [2] (read-out: 2a JFH (nM)), 0.005 nM; in experiment [3] (read-out: 3a), < 1 nM; in experiment [3] (read-out: 3a (nM)) it was 0.02 nM. For the same compound, the EC50 was < 1 nM in experiment [4] (read-out: 2a J6); 0.182 nM in experiment [4] (read-out: 2a Jb (t) (nM)); < 1 nM in experiment [5] (read-out: 2b); 0.049 nM in experiment [5] (read-out: 2b (s) (nM)); 0.051 nM in experiment [5] (read-out: 2b (t) (nM)); < 1 nM in experiment [7] (read-out: 1a Q30R). In addition, the EC50 in experiment [7] (read-out: 1a Q30R (nM)) came out at 0.051 nM.
